In US20180008570A1, “METHOD OF TREATMENT OF A NEUROPATHIC PAIN” (CHAOYANG UNIVERSITY OF TECHNOLOGY, priority 2016, published 2018):
“Also recorded” adds a separate entry of the source. Structures can show the parent of a compound that is named as a salt.

How the values were obtained:
[1] = test system: male BALB/c mice with sciatic nerve transaction; assay: Von Frey test, hindpaw withdrawal threshold in sciatic nerve transaction (SNT) neuropathic pain model; type: in vivo
Experimental: (§1) Lyophilized andrographolide powder is dissolved in DMSO and subsequently diluted to 2.86 mM (1 mg/mL) in 90% normal saline and 10% DMSO for storage. The mixture is injected into the peritoneum (body cavity) of each animal (intraperitoneal injection) based on 5 mg/kg animal weight, for example, a 30 g mouse is injected with 150 μL of saline containing 0.15 mg of andrographolide. NSAID drugs (Diclofenac sodium salt) may be purchased from Sigma (D6899), and diluted to 2.86 mM (0.91 mg/mL) in 90% saline and 10% DMSO for storage. The NSAID drugs is administered via intraperitoneal injection based on […] animal weight, for example, a 30 g mouse is injected with 165 μL of saline containing 0.15 mg of NSAID drugs. The number of molecules administered is less in andrographolide treated mouse than in NSAID drugs treated […]. These drugs are administered daily after surgery.
(§2) An operation for inducing the sciatic nerve transaction of BALB/c mice is processing as follows. After isoflurane anesthesia is applied to male BALB/c mice, which have about 8 weeks of age and have a weight of approximately 30 g, the skin of the right thigh is slit to expose the muscle. Then a blunt instrument is used to spread open the biceps femoris to expose the sciatic nerve and its three nerve branches, which are the sural nerve, common peroneal nerve and tibial nerve. Then a sterilized no. 4-0 chromium wire is used to tie the sciatic nerve, and approximately 2-4 mm of the ends of the common peroneal nerve and the tibial nerve are cut at a position near the tying position. Care is taken to avoid touching and stretching the sural nerve. The muscle and skin are closed in two separate layers. For sham surgery, the sciatic nerve is exposed as described above but no contact is made with the nerve. In this embodiment, the nerve is tied to a level such that there is slight sheathing of the nerve in order to avoid affecting the blood circulation in the area. The mice's behavior is observed after several days of rest.
(§3) The experiment is separated into the following groups that receive different treatments. In the normal group, no surgery is carried out and no andrographolide or NSAID drugs are administered to mice. In the pain group (OP-saline), saline is given to mice daily after surgery. In the control group (Op-NSAIDs), Diclofenac sodium salt is administered to mice daily after surgery. In the experimental group (Op-AP), an andrographolide compound is administered to mice daily after surgery. The means of administration is by intraperitoneal injection. The concentration of drugs for both the control group and the experimental group is 5 mg/kg animal weight, and the average animal weight is 30 g. For the model that uses an in vivo sciatic nerve transaction to simulate pathological pain, the mice behavior is tested on 3, 7, 14 days after surgery. The von Frey hair test is used to determinate the withdrawal threshold of the pathological pain.
Mechanical allodynia threshold at the lateral plantar surface of the hindpaw is assessed before nerve injury (as basal pain threshold) and then testing began on day 3 after surgery and continued for 7 and 14 days after surgery. Mechanical sensitivity is determined by measuring the withdrawal thresholds and reaction ratio to von Frey hairs (Stoelting, Wood Dale, Ill.) using the up and- down method (Dixon 1980) as described by Chaplan (Chaplan, Bach et al. 1994). Animals were placed in a plastic cage with a wire net floor and were allowed to habituate 10-15 min before testing began. Animals were also habituated over a period of 2-3 consecutive days by recording a series of baseline measurements. The filaments were applied in ascending order, each 5 times at an interval of 2-3 s to the plantar surface of the hindpaw (Bourquin, Suveges et al. 2006) and the smallest filament eliciting a foot withdrawal response is considered the threshold stimulus. […]

[2] = test system: male BALB/c mice with sciatic nerve transaction; assay: Von Frey test, withdrawal rate (reaction types II-IV) with 0.02 g and 0.07 g fibers in SNT neuropathic pain model; type: in vivo; details: 5 mg/kg i.p. daily; for withdrawal rate, von Frey fiber of 0.02 g, right hindpaw: 3, 7 and 14 days after surgery
Experimental: as §1, §2, §3
Mechanical allodynia threshold at the lateral plantar surface of the hindpaw is assessed before nerve injury (as basal pain threshold) and then testing began on day 3 after surgery and continued for 7 and 14 days after surgery. Mechanical sensitivity is determined by measuring the withdrawal thresholds and reaction ratio to von Frey hairs (Stoelting, Wood Dale, Ill.) using the up and- down method (Dixon 1980) as described by Chaplan (Chaplan, Bach et al. 1994). […]

[3] = test system: glial fibrillary acidic protein (GFAP); assay: GFAP immunoreactivity in spinal cord astrocytes (L4-L6), immunohistochemical staining and quantification; type: in vivo, mice; details: 5 mg/kg i.p. daily; 7 days after surgery; compared to OP-saline group
Experimental: The following procedure is to ascertain the activity of astrocytic glial cells of the spinal cord. The mice are deeply anaesthetized with sevoflurane and perfused transcardially with saline followed by 0.1 M phosphate buffer solution containing 4% paraformaldehyde. The L4-L6 segment of spinal cord and left and right sciatic nerves are dissected out and post-fixed in a 4% parformaldehye solution at 4° C. overnight, and transferred to a series of solution of phosphate-buffered saline (PBS), graded ethanol/PBS, xylyne, graded xylyne/wax mixture, and finally embedded in wax. A rotary slicer for tissues is used to slice the sample to a transverse section with a thickness of 3 um, and warm water is used to spread and attach to the glass slice.
The wax sections are dewaxed in a series of xylene, graded xylene/ethanol mixture, or graded ethanol mixture, and finally incubation in PBS. […]
The immunoreactivity in each group is analyzed, and the intensity of chromogen staining or fluorescence is determined by photo form 4-5 independent animals. The image of the photo is analyzed using the same settings for quantitative comparison. All measured pixels in a specific area are analyzed by the ImageJ software on 0 (black) to 255 (white) scales. The total number of pixels having a value less than 50 in the photo is calculated and used to estimate the value of immunoreactivity in the area of interest.

SMILES | left hindpaw withdrawal threshold (contralateral, mirror pain), persistence of higher threshold ([1]; 5 mg/kg i.p. daily, 7-14 days post-operation, compared to saline group) | left hindpaw withdrawal threshold (contralateral, mirror pain) ([1]; 5 mg/kg i.p. daily, 3 days after surgery, compared to saline group) | right hindpaw withdrawal threshold ([1]; 5 mg/kg i.p. daily after surgery, 3, 7 and 14 days after surgery, compared to OP-saline group) | left hindpaw withdrawal threshold (contralateral, mirror pain) ([1]; 5 mg/kg i.p. daily, 3, 7 and 14 days after surgery, compared to saline group and NSAIDs group) | right hindpaw withdrawal threshold, effect compared with NSAID drugs ([1]; 5 mg/kg i.p. daily, 3 and 14 days after surgery, vs Op-NSAIDs (Diclofenac sodium salt)) | degree of relief from mechanical allodynia compared with same dose of NSAID drugs ([1]; 5 mg/kg i.p. daily, overall summary) | withdrawal rate, von Frey fiber of 0.02 g, right hindpaw ([2]; compared with Op-NSAID group) | withdrawal rate, von Frey fiber of 0.02 g, right hindpaw ([2]; compared with Op-saline group) | withdrawal rate, fiber of 0.07 g, difference to Op-NSAID group ([2]; 7-14 days after surgery) | withdrawal rate, fiber of 0.07 g, difference to Op-NSAID group ([2]; 3 days after surgery) | withdrawal rate, fiber of 0.07 g ([2]; compared to Op-saline group) | GFAP immunoreactivity of the astrocytes, L4-L6 spinal area [3]
O=C(O)Cc1ccccc1Nc1c(Cl)cccc1Cl [NSAIDS, Diclofenac sodium salt, reference compound] | does not sustain | higher (although not significant) |  |  |  |  |  |  |  |  |  | 
C=C1CC[C@@H]2[C@](C)(CO)[C@H](O)CC[C@@]2(C)[C@@H]1C/C=C1/C(=O)OC[C@H]1O [andrographolide] |  |  | significantly increased; also recorded: significant increase | significantly increased | more significant effect | better | very significant lower | very significant low | significant | not significant | reduced pain sensation | reduced trend
